From the NIST ThermoML archive (doi:10.1021/je800560b)
Several values for one entry are separate records, joined by “and”; a condition that tells them apart may be missing. Equal entries are not always repeated.

Conditions: Liquid

O=[Si] [silicon monooxide]
Conditions	vapor or sublimation pressure
1301 K	0.00029 kPa and 0.00016 kPa
1315 K	0.0004 kPa and 0.00024 kPa
1325 K	0.0005 kPa and 0.00032 kPa
1335 K	0.00064 kPa and 0.0004 kPa
1350 K	0.00088 kPa and 0.00089 kPa and 0.00057 kPa
1364 K	0.00123 kPa and 0.00082 kPa
1374 K	0.00155 kPa and 0.00152 kPa and 0.00103 kPa
1399 K	0.0026 kPa and 0.00175 kPa
1421 K	0.0042 kPa and 0.00287 kPa
1433 K	0.0054 kPa and 0.0037 kPa
1446 K	0.0071 kPa and 0.0048 kPa
1470 K	0.0116 kPa and 0.0114 kPa and 0.0079 kPa
1495 K	0.0185 kPa and 0.0177 kPa and 0.0127 kPa
1519 K	0.029 kPa and 0.027 kPa and 0.0201 kPa
